Reference: patent publication US20100055071A1, “Anti-Viral Compounds” (priority 2006, published 2010)

Test system: HCV replication in ET (Huh-lucubineo-ET) cell line
Experiment: Replicon Assay (HCV replicon luciferase, ET cell line)
Format: cell-based
Conditions: Hepatitis C virus; tested at 10 μM; ET (Huh-lucubineo-ET) replicon cells; luciferase activity measured 48-72 hours later; relative to no compound control
Description: A cell line, ET (Huh-lucubineo-ET) was used for screening of compounds of the present invention for inhibiting HCV replication. The ET cell line was stably transfected with RNA transcripts harboring a I389luc-ubi-neo/NS3-3′/ET; replicon with firefly luciferase-ubiquitin-neomycin phosphotransferase fusion protein and EMCV-IRES driven NS3-5B polyprotein containing the cell culture adaptive mutations (E1202G; T1280I; K1846T) (Krieger at al, 2001 and unpublished). The ET cells were grown in DMEM (Dulbeco's Modified Eagle's Medium), supplemented with 10% fetal calf serum, 2 mM Glutamine, Penicillin (100 IU/mL)/Streptomycin (100 μg/mL), 1× nonessential amino acids, and 250 μg/mL G418 (“Geneticin”). They were all available through Life Technologies (Bethesda, Md.). The cells were plated at 0.5-1.0×10^4 cells/well in the 96 well plates and incubated for 24 hrs before adding testing compounds. Then the compounds were added to the cells to achieve a final concentration of 0.1 nM to 50 μM and a final DMSO concentration of 0.5%. Luciferase activity were measured 48-72 hours later by adding a lysis buffer and the substrate (Catalog number Glo-lysis buffer E2661 and Bright-Glo luciferase system E2620 Promega, Madison, Wis.). Cells should not be too confluent during the assay. Percent inhibition of replication was plotted relative to no compound control. Under the same condition, cytotoxicity of the compounds was determined using cell proliferation reagent, WST-1 (Roche, Germany). The compounds showing antiviral activities, but no significant cytotoxicities were chosen to determine EC50 and TC50. For these determinations, a 10 point 2-fold serial dilution for each compound was used, which spans a concentration range of 1000 fold. EC50 and similarly TC50 values were calculated by fitting % inhibition at each concentration to the following equation:
% inhibition=100%/[(IC50/[I])^b+1]
where b is Hill's coefficient.
In some preferred embodiments compounds of Formula I will have a % inhibition of at least 20% when tested at 10 μM. In other embodiments the compounds of Formula I will have a % inhibition of at least 50% when tested at 10 μM.

Compound | inhibition at 10 µM [%]
O=C(NCc1ccc(-c2ccc3nc([C@@H]4CCCN4C(=O)OCc4ccccc4)[nH]c3c2)cc1)C1CC1 [Compound 4038, (S)-2-(6-{4-[(Cyclopropanecarbonyl-amino)-methyl]-phenyl}-1H-benzoimidazol-2-yl)-pyrrolidine-1-carboxylic acid benzyl ester] | 97
O=C(NC1CC1)c1ccc(-c2ccc3[nH]c([C@@H]4CSC(c5ccncc5)N4C(=O)OCc4ccccc4)nc3c2)cc1 (stereo in doubt) [Compound 4006, (S)-4-[5-(4-Cyclopropylcarbamoyl-phenyl)-1H-benzoimidazol-2-yl]-2-pyridin-4-yl-thiazolidine-3-carboxylic acid benzyl ester] | 99.8
O=C(NC1CC1)c1ccc(-c2ccc3nc([C@@H]4Cc5ccccc5N4C(=O)OCc4ccccc4)[nH]c3c2)cc1 [Compound 4010, (S)-2-[6-(4-Cyclopropylcarbamoyl-phenyl)-1H-benzoimidazol-2-yl]-2,3-dihydro-indole-1-carboxylic acid benzyl ester] | 96.8
O=C(Nc1ccc(-c2ccc([C@@H]3CCCN3C(=O)OCc3ccccc3)cc2)cc1)C1CC1 (stereo in doubt) [Compound 4026, 2-[4′-(Cyclopropanecarbonyl-amino)-biphenyl-4-yl]-pyrrolidine-1-carboxylic acid benzyl ester] | 47.6
O=C(Nc1cccc(-c2ccc([C@@H]3CCCN3C(=O)OCc3ccccc3)cc2)c1)C1CC1 (stereo in doubt) [Compound 4009, 2-[3′-(Cyclopropanecarbonyl-amino)-biphenyl-4-yl]-pyrrolidine-1-carboxylic acid benzyl ester] | 31.7
O=C(Nc1ccc(-c2ccc3nc([C@@H]4CCCN4C(=O)OCc4ccccc4)[nH]c3c2)cc1)C1CC1 [Compound 4058, (S)-2-{6-[4-(Cyclopropanecarbonyl-amino)-phenyl]-1H-benzoimidazol-2-yl}-pyrrolidine-1-carboxylic acid benzyl ester] | 97.9
